The target in experiment [1] is Protein farnesyltransferase/geranylgeranyltransferase type-1 subunit alpha (Rattus norvegicus, UniProt Q04631). The experiment in a line: PfPFT and Rat PFT IC50 Determination. On the procedure: (§1) Assays for PFT activity were performed with a PFT-specific scintillation assay (SPA) kit (Amersham Biosciences, Piscataway, NJ). IC50 values were calculated using linear regression analysis of the plots of [3H] farnesyl pyrophosphate (FPP) prenylation versus concentration of compounds.

The target in experiment [2] is Protein farnesyltransferase/geranylgeranyltransferase type-1 subunit alpha / Protein farnesyltransferase subunit beta (Plasmodium falciparum, UniProt Q5EI73+Q5EI74). The experiment in a line: PfPFT and Rat PFT IC50 Determination. The settings on record: pH 7.5; 37 °C. Here is the method:
as §1

The term IC50 denotes the concentration that inhibits the measured activity by half. Low values mean greater potency in that assay, high ones weaker potency in that assay.

The structures appear in SMILES notation.

Sequence of Protein farnesyltransferase/geranylgeranyltransferase type-1 subunit alpha / Protein farnesyltransferase subunit beta (Q5EI73 1-521): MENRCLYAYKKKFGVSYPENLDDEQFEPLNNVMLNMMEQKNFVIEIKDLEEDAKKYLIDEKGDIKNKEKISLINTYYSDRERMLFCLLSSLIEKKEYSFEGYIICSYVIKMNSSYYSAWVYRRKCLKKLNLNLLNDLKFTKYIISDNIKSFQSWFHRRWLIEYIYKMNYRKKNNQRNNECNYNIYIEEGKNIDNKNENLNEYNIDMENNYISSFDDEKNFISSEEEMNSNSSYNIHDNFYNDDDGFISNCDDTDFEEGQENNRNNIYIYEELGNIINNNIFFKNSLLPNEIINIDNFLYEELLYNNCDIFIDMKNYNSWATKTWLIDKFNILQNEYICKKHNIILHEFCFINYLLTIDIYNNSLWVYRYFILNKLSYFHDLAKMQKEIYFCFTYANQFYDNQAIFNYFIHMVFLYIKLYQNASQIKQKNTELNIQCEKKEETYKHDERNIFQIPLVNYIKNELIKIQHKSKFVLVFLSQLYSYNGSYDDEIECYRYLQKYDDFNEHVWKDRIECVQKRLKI
Sequence of Protein farnesyltransferase/geranylgeranyltransferase type-1 subunit alpha / Protein farnesyltransferase subunit beta (Q5EI74 1-923): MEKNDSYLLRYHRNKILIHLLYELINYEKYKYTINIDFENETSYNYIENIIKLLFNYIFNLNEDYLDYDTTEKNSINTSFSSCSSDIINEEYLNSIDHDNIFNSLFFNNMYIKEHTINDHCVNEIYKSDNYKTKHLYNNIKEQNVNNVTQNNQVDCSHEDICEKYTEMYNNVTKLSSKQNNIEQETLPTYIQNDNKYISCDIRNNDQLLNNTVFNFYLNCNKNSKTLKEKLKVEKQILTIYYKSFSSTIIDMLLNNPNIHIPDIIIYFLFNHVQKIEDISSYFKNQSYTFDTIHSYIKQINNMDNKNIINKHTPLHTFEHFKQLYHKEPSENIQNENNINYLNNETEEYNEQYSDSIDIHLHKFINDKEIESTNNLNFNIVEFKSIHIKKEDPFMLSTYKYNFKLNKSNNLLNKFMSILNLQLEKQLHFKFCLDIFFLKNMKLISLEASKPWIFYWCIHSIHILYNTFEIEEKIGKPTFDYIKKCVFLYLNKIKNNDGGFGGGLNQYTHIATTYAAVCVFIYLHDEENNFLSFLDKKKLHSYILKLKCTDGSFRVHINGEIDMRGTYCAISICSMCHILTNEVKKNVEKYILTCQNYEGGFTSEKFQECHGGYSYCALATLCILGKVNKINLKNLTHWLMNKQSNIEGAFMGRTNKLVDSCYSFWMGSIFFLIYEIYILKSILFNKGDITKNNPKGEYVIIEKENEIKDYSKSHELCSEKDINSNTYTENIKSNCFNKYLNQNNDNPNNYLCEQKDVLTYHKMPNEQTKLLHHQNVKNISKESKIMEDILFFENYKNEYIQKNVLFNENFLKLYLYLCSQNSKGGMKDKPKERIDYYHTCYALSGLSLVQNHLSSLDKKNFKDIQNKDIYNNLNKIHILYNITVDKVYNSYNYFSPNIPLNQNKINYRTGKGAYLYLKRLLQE

As for `[C-]#[N+]c1ccc2c(c1)CC(N(CC(=O)NC(C)(C)C)S(=O)(=O)c1ccncc1)CN2Cc1cncn1C` (stereo unspecified) [N-tert-Butyl-2-[[6-isocyano-1-(3-methyl-3H-imidazol-4-ylmethyl)-1,2,3,4-tetrahydroquinolin-3-yl]-(pyridine-4-sulfonyl)amino]acetamide], the IC50 worked out at 160 nM in experiment [1] and 1000 nM in experiment [2].
For the compound `[C-]#[N+]c1ccc2c(c1)CC(N(CC(=O)NC(C)(C)C)S(=O)(=O)c1ccccn1)CN2Cc1cncn1C` (stereo unspecified) [N-tert-butyl-2-({6-isocyano-1-[(1-methyl-1H-imidazol-5-yl)methyl]-1,2,3,4-tetrahydroquinolin-3-yl}(pyridine-2-)sulfonamido)acetamide], the IC50 in experiment [1] amounted to 1.8 nM; in experiment [2] it was 1.4 nM.
As to `[C-]#[N+]c1ccc2c(c1)CC(N(CC(=O)NC(C)(C)C)S(=O)(=O)c1cccnc1)CN2Cc1cncn1C` (stereo unspecified) [N-tert-Butyl-2-[[6-isocyano-1-(3-methyl-3H-imidazol-4-ylmethyl)-1,2,3,4-tetrahydroquinolin-3-yl]-(pyridine-3-sulfonyl)amino]acetamide], the IC50 was 6 nM in experiment [1] and 25 nM in experiment [2].
